Reference: patent publication US9290485B2, “N-((6-amino-pyridin-3-yl)methyl)-heteroaryl-carboxamides” (NOVARTIS AG, priority 2010, dated 2016)

These molecules were tested against human plasma kallikrein (Homo sapiens (Human), UniProt P03952). Settings: human plasma kallikrein 25 pM, substrate 0.5 uM, 1 hour pre-incubation at room temperature, read at t=60 min.
Chain of human plasma kallikrein (P03952 whole entry, looked up): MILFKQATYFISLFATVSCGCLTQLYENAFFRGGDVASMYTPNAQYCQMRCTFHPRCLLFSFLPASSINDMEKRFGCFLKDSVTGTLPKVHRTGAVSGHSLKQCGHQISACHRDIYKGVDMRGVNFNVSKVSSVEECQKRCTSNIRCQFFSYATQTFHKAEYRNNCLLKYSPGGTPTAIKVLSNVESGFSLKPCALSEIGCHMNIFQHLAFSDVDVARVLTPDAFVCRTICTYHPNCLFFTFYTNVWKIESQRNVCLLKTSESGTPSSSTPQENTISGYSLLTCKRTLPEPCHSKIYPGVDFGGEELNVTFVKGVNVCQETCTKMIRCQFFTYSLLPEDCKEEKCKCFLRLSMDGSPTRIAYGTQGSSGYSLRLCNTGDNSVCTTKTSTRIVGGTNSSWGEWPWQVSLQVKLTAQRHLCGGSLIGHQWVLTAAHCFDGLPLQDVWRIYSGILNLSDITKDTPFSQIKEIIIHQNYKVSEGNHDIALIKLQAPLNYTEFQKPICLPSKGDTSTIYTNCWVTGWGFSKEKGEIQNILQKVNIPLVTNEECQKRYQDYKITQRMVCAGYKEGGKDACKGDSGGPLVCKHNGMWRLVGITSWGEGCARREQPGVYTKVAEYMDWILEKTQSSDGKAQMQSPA
Chain of human plasma kallikrein (P03952 whole entry partner, looked up): as the sequence (P03952 whole entry, looked up) above
Protocol: All other chemicals were of analytical grade.
A stock solution of 0.17 mg/ml deinonized water was stored at −80° C. Enzymatic reactions were conducted in ‘assay buffer’, comprising 50 mM Hepes/NaOH at pH 7.8, 150 mM NaCl, 1 mM EDTA and 0.05% (w/v) CHAPS.
Both, enzyme and substrate were diluted in assay buffer.
All protein and peptide containing solutions were handled in siliconized tubes (Life Systems Design, Merenschwand, Switzerland). […] Plate measurements were conducted by the means of a Safire2 reader (TECAN, Maennedorf, Switzerland). The Safire2 is a monochomator-based instrument and wavelengths of 485 nm and 535 nm were taken for fluorescence excitation and emission acquisition, respectively. The bandwidths were set to 10 nm in both the excitation and the emission path. The fluorescence in each well was excited by three flashes per measurement.
The test compound was dissolved in 90% (v/v) DMSO/water. For the assays, 250 nL of the 90% (v/v) DMSO/water solution or compound solution were added per well, followed by the addition of 12.5 μl protease solution (protease in assay buffer). […] After 1 hour of pre-incubation at room temperature, the reactions were started by the addition of 12.5 μl substrate solution (in assay buffer, final assay concentration was 0.5 uM). After the addition of the substrate solution, the final DMSO concentration in the assay was 0.9% (v/v). […] The IC50 value was calculated from the plot of percentage of inhibition vs. inhibitor concentration by a logistics fit according to the following equation: y=A2+(A1−A2)/(1+(x/IC50)^p) where y is the %-inhibition at the inhibitor concentration, x. A1 is the lowest inhibition value, i.e. 0%, and A2 the maximum inhibition value, i.e. 100%. The exponent, p, is the Hill coefficient. The curve fitting was conducted with the non-linear regression routine of the analysis software Origin 7.55R6 (OriginLab Corporation).

Row | SMILES | IC50
1 | Cc1cc(N)nc(C)c1CNC(=O)c1cc(Cc2ccccc2)no1 [Example 3, N-((6-amino-2,4-dimethylpyridin-3-yl)methyl)-3-benzylisoxazole-5-carboxamide] | 2.26 µM
2 | Cc1cc(N)nc(C)c1CNC(=O)c1nnc(Cc2ccccc2)o1 [Example 4, N-((6-amino-2,4-dimethylpyridin-3-yl)methyl)-5-benzyl-1,3,4-oxadiazole-2-carboxamide] | 7.6 µM
3 | Cc1cc(N)nc(C)c1CNC(=O)c1nc(Cc2ccccc2)no1 [Example 5, N-((6-amino-2,4-dimethylpyridin-3-yl)methyl)-3-benzyl-1,2,4-oxadiazole-5-carboxamide] | 4.5 µM
4 | Cc1cc(N)nc(C)c1CNC(=O)c1cn(Cc2ccc(Cn3cccn3)cc2)cn1 [Example 6, 1-(4-((1H-pyrazol-1-yl)methyl)benzyl)-N-((6-amino-2,4-dimethylpyridin-3-yl)methyl)-1H-imidazole-4-carboxamide] | 0.0002 µM
5 | Cc1cc(N)nc(C)c1CNC(=O)c1ncc(Cc2ccccc2)o1 [Example 7, N-((6-amino-2,4-dimethylpyridin-3-yl)methyl)-5-benzyloxazole-2-carboxamide] | 2.03 µM
6 | COc1ccc(Cc2nc(C(=O)NCc3c(C)cc(N)nc3C)co2)cc1 [Example 8, N-((6-amino-2,4-dimethylpyridin-3-yl)methyl)-2-(4-methoxybenzyl)oxazole-4-carboxamide] | 2.64 µM
7 | Cc1cc(N)nc(C)c1CNC(=O)c1cnn(C(CO)c2ccccc2)c1 (stereo not drawn) [Example 11, N-((6-amino-2,4-dimethylpyridin-3-yl)methyl)-1-(2-hydroxy-1-phenylethyl)-1H-pyrazole-4-carboxamide] | 12.2 µM
8 | COc1ccc(S(=O)(=O)n2ccc(C(=O)NCc3c(C)cc(N)nc3C)c2)cc1 [Example 12, 1-(4-Methoxy-benzenesulfonyl)-1H-pyrrole-3-carboxylic acid (6-amino-2,4-dimethyl-pyridin-3-ylmethyl)-amide] | 1.37 µM
9 | COc1cc(N)nc(C)c1CNC(=O)c1cnn(Cc2ccccc2)c1 [Example 14, N-((6-amino-4-methoxy-2-methylpyridin-3-yl)methyl)-1-benzyl-1H-pyrazole-4-carboxamide] | 0.32 µM
10 | Cc1nc(N)cc(OC2CCCCC2)c1CNC(=O)c1cnn(Cc2ccccc2)c1 [Example 15, N-((6-amino-4-(cyclohexyloxy)-2-methylpyridin-3-yl)methyl)-1-benzyl-1H-pyrazole-4-carboxamide] | 0.23 µM
11 | Cc1cc(N)nc(C)c1CNC(=O)c1cnn(Cc2ccc(CN3C(=O)CCC3=O)cc2)c1 [Example 17, N-((6-amino-2,4-dimethylpyridin-3-yl)methyl)-1-(4-((2,5-dioxopyrrolidin-1-yl)methyl)benzyl)-1H-pyrazole-4-carboxamide] | 0.098 µM
12 | Cc1cc(N)nc(C)c1CNC(=O)c1cnn(Cc2ccncc2)c1 [Example 18, N-((6-amino-2,4-dimethylpyridin-3-yl)methyl)-1-(pyridin-4-ylmethyl)-1H-pyrazole-4-carboxamide] | 1.1 µM
13 | Cc1cc(N)nc(C)c1CNC(=O)c1cn(Cc2ccccc2)nn1 [Example 21, N-((6-amino-2,4-dimethylpyridin-3-yl)methyl)-1-benzyl-1H-1,2,3-triazole-4-carboxamide] | 2.54 µM
14 | Cc1cc(N)nc(C)c1CNC(=O)c1cn(Cc2ccccc2)cn1 [Example 22, N-((6-amino-2,4-dimethylpyridin-3-yl)methyl)-1-benzyl-1H-imidazole-4-carboxamide] | 1.7 µM
15 | Cc1cc(N)nc(C)c1CNC(=O)c1cn(Cc2ccc(Oc3ccccc3)cc2)cn1 [Example 23, N-((6-amino-2,4-dimethylpyridin-3-yl)methyl)-1-(4-phenoxybenzyl)-1H-imidazole-4-carboxamide] | 0.009 µM
16 | Cc1cc(N)nc(C)c1CNC(=O)c1cn(Cc2ccc(-n3cccn3)cc2)cn1 [Example 24, 1-(4-(1H-pyrazol-1-yl)benzyl)-N-((6-amino-2,4-dimethylpyridin-3-yl)methyl)-1H-imidazole-4-carboxamide] | 0.238 µM
17 | Cc1cc(N)nc(C)c1CNC(=O)c1cnn(Cc2csc(Nc3ccccc3)n2)c1 [Example 25, N-((6-amino-2,4-dimethylpyridin-3-yl)methyl)-1-((2-(phenylamino)thiazol-4-yl)methyl)-1H-pyrazole-4-carboxamide] | 0.109 µM
18 | Cc1cc(N)nc(C)c1CNC(=O)c1cnn(Cc2sc(-c3ccccc3)nc2C)c1 [Example 26, N-((6-amino-2,4-dimethylpyridin-3-yl)methyl)-1-((4-methyl-2-phenylthiazol-5-yl)methyl)-1H-pyrazole-4-carboxamide] | 0.019 µM
19 | Cc1cc(N)nc(C)c1CNC(=O)c1cnn(Cc2csc(Cc3ccccc3)n2)c1 [Example 27, N-((6-amino-2,4-dimethylpyridin-3-yl)methyl)-1-((2-benzylthiazol-4-yl)methyl)-1H-pyrazole-4-carboxamide] | 0.021 µM
20 | Cc1cc(N)nc(C)c1CNC(=O)c1cnn(Cc2csc(C(C)(C)C)n2)c1 [Example 28, N-((6-amino-2,4-dimethylpyridin-3-yl)methyl)-1-((2-tert-butylthiazol-4-yl)methyl)-1H-pyrazole-4-carboxamide] | 0.343 µM

Row | SMILES | IC50
21 | Cc1cc(N)nc(C)c1CNC(=O)c1cnn(Cc2csc(CC(=O)N(C)C)n2)c1 [Example 29, N-((6-amino-2,4-dimethylpyridin-3-yl)methyl)-1-((2-(2-(dimethylamino)-2-oxoethyl)thiazol-4-yl)methyl]-1H-pyrazole-4-carboxamide] | 0.248 µM
22 | Cc1cc(N)nc(C)c1CNC(=O)c1cnn(Cc2cn3ccccc3n2)c1 [Example 30, N-((6-amino-2,4-dimethylpyridin-3-yl)methyl)-1-(imidazo[1,2-a]pyridin-2-ylmethyl)-1H-pyrazole-4-carboxamide] | 0.204 µM
23 | Cc1cc(N)nc(C)c1CNC(=O)c1cnn(Cc2cc3ccccc3o2)c1 [Example 31] | 0.143 µM
24 | Cc1cc(N)nc(C)c1CNC(=O)c1cnn(Cc2coc(-c3ccccc3)n2)c1 [Example 32, N-((6-amino-2,4-dimethylpyridin-3-yl)methyl)-1-((2-phenyloxazol-4-yl)methyl)-1H-pyrazole-4-carboxamide] | 0.041 µM
25 | Cc1cc(N)nc(C)c1CNC(=O)c1cnn(Cc2ccc3[nH]cnc3c2)c1 [Example 33, 1-((1H-benzo[d]imidazol-5-yl)methyl)-N-((6-amino-2,4-dimethylpyridin-3-yl)methyl)-1H-pyrazole-4-carboxamide] | 0.262 µM
26 | Cc1cc(N)nc(C)c1CNC(=O)c1cnn(Cc2ccc3ccn(C)c3c2)c1 [Example 34, N-((6-amino-2,4-dimethylpyridin-3-yl)methyl)-1-((1-methyl-1H-indol-6-yl)methyl)-1H-pyrazole-4-carboxamide] | 0.046 µM
27 | Cc1cc(N)nc(C)c1CNC(=O)c1cnn(Cc2ncoc2-c2ccccc2)c1 [Example 35, N-((6-amino-2,4-dimethylpyridin-3-yl)methyl)-1-((5-phenyloxazol-4-yl)methyl)-1H-pyrazole-4-carboxamide] | 3.9 µM
28 | Cc1cc(N)nc(C)c1CNC(=O)c1cnn(S(=O)(=O)c2cccc(C#N)c2)c1 [Example 37, N-((6-amino-2,4-dimethylpyridin-3-yl)methyl)-1-(3-cyanophenylsulfonyl)-1H-pyrazole-4-carboxamide] | 5.3 µM
29 | Cc1cc(N)nc(C)c1CNC(=O)c1cn(Cc2ccc(Oc3ccccc3)cc2)nn1 [Example 38, N-((6-amino-2,4-dimethylpyridin-3-yl)methyl)-1-(4-phenoxybenzyl)-1H-1,2,3-triazole-4-carboxamide] | 0.019 µM
30 | Cc1cc(N)nc(C)c1CNC(=O)c1cn(Cc2cccc3ccccc23)nn1 [Example 39, N-((6-amino-2,4-dimethylpyridin-3-yl)methyl)-1-(naphthalen-1-ylmethyl)-1H-1,2,3-triazole-4-carboxamide] | 0.634 µM
31 | Cc1cc(N)nc(C)c1CNC(=O)c1cn(Cc2ccc3ccccc3c2)nn1 [Example 40, N-((6-amino-2,4-dimethylpyridin-3-yl)methyl)-1-(naphthalen-2-ylmethyl)-1H-1,2,3-triazole-4-carboxamide] | 0.009 µM
32 | Cc1cc(N)nc(C)c1CNC(=O)c1cn(Cc2ccc(-n3cccn3)cc2)nn1 [Example 41, 1-(4-(1H-pyrazol-1-yl)benzyl)-N-((6-amino-2,4-dimethylpyridin-3-yl)methyl]-1H-1,2,3-triazole-4-carboxamide] | 0.108 µM
33 | Cc1cc(N)nc(C)c1CNC(=O)c1cn(Cc2cccc(-n3cccn3)c2)nn1 [Example 42, 1-(3-(1H-pyrazol-1-yl)benzyl)-N-((6-amino-2,4-dimethylpyridin-3-yl)methyl)-1H-1,2,3-triazole-4-carboxamide] | 0.145 µM
34 | Cc1cc(N)nc(C)c1CNC(=O)c1cn(Cc2cccc(N3CCCC3)c2)nn1 [Example 43, N-((6-amino-2,4-dimethylpyridin-3-yl)methyl)-1-(3-(pyrolidin-1-yl)benzyl)-1H-1,2,3-triazole-4-carboxamide] | 0.113 µM
35 | Cc1cc(N)nc(C)c1CNC(=O)c1cnn(Cc2cc3ccccc3o2)n1 [Example 44, N-((6-amino-2,4-dimethylpyridin-3-yl)methyl)-2-(benzofuran-2-ylmethyl)-2H-1,2,3-triazole-4-carboxamide] | 0.215 µM
36 | Cc1cc(N)nc(C)c1CNC(=O)c1cn(Cc2ccc(Cn3ccnc3)cc2)nn1 [Example 45, 1-(4-((1H-imidazol-1-yl)methyl)benzyl)-N-((6-amino-2,4-dimethylpyridin-3-yl)methyl)-1H-1,2,3-triazole-4-carboxamide] | 0.045 µM
37 | Cc1cc(N)nc(C)c1CNC(=O)c1cn(Cc2cccc(Cn3ccnc3)c2)nn1 [Example 46, 1-(3-((1H-imidazol-1-yl)methyl)benzyl)-N-((6-amino-2,4-dimethylpyridin-3-yl)methyl)-1H-1,2,3-triazole-4-carboxamide] | 1.1 µM
38 | Cc1cc(N)nc(C)c1CNC(=O)c1csc(Cc2ccccc2)n1 [Example 47, N-((6-amino-2,4-dimethylpyridin-3-yl)methyl)-2-benzylthiazole-4-carboxamide] | 3.2 µM
39 | Cc1cc(N)nc(C)c1CNC(=O)c1ccc(Oc2ccccc2)o1 [Example 48, N-((6-amino-2,4-dimethylpyridin-3-yl)methyl)-5-phenoxyfuran-2-carboxamide] | 35.5 µM
